Among the test systems are 786-0 renal; IGROV1 ovarian; NCI-H226 lung; RPMI-8226 leukemia; RXF 393 renal; SF-268 CNS; SK-OV-3 ovarian; SR leukemia; TK-10 renal; U251 CNS.
Experiment in all cases: inhibition of tumour cell growth, NCI panel, 48 h

Where “and” joins values, the source holds several entries; their conditions need not be identical. Identical values can stand only once.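 Exposure lasted 48 hours, with cells grown in 96-well plates and compounds tested at five concentrations. GI50: concentration for 50% inhibition of growth. TGI: total growth inhibition.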

Consider `CCOC(=O)NC1=C(N2CC2)C(=O)C(NC(=O)OCC)=C(N2CC2)C1=O`, for which the GI50 in the experiment with 786-0 renal is 4.02 µM and 1.78 µM; with IGROV1 ovarian, 8.21 µM and 7.5 µM; in the experiment with NCI-H226 lung, 18 µM and 11 µM; in the experiment with RPMI-8226 leukemia it was 9.3 µM; in the experiment with RXF 393 renal, 13 µM and 5.74 µM; in the experiment on SF-268 CNS it was 5.55 µM and 4.88 µM. The GI50 in the experiment on SK-OV-3 ovarian was 9.93 µM and 8.49 µM; in the experiment on SR leukemia, 0.389 µM; in the experiment on TK-10 renal, over 25 µM; in the experiment on U251 CNS, 3.91 µM. The TGI is 25 µM and 18.4 µM and 33.2 µM with 786-0 renal; 25 µM and 18.1 µM and 30.6 µM with IGROV1 ovarian; 25 µM and 20 µM and 43 µM in the experiment on NCI-H226 lung; 19 µM and 20.2 µM and 10.6 µM in the experiment on RPMI-8226 leukemia; 25 µM and 14.4 µM and 12.9 µM in the experiment on RXF 393 renal; 25 µM and 20.7 µM and 26.9 µM in the experiment on SF-268 CNS. The TGI with SK-OV-3 ovarian was 25 µM and 20.3 µM and 31.8 µM; in the experiment with SR leukemia, 7.9 µM and 60.6 µM; with TK-10 renal it was > 25 µM and 65.1 µM; with U251 CNS, 20 µM and 10.8 µM and 9.77 µM.

For the compound `CC(C)[NH-].CC(C)[NH-].O.O.[Cl][Pt+2][Cl]`, the GI50 in the experiment on 786-0 renal is 33.8 µM; with IGROV1 ovarian, 33.4 µM; in the experiment with NCI-H226 lung, 66 µM; in the experiment on RPMI-8226 leukemia, 38.1 µM; in the experiment on RXF 393 renal, 26.6 µM; in the experiment with SF-268 CNS, 38.1 µM. For the same compound, the GI50 in the experiment on SK-OV-3 ovarian is 28.6 µM; in the experiment on SR leukemia, 17.8 µM; with TK-10 renal, 190 µM; in the experiment on U251 CNS, 27.3 µM. In addition, the TGI in the experiment with 786-0 renal is 126 µM; in the experiment with IGROV1 ovarian, 132 µM; with NCI-H226 lung, 259 µM; in the experiment on RPMI-8226 leukemia it was 281 µM; in the experiment on RXF 393 renal, 137 µM; with SF-268 CNS, 231 µM. The TGI with SK-OV-3 ovarian amounted to 92.6 µM; with SR leukemia, 53.5 µM; in the experiment on TK-10 renal, 467 µM; with U251 CNS it was 107 µM.

On to `Fc1cccc(CSc2ncnc3c2ncn3C2CCCS2)c1` (stereo unspecified), for which the TGI in the experiment with 786-0 renal was 51.5 µM; with IGROV1 ovarian, over 100 µM; in the experiment with NCI-H226 lung, 61.4 µM; with RPMI-8226 leukemia, 52.1 µM; in the experiment on RXF 393 renal, 92.2 µM; with SF-268 CNS, over 100 µM. Besides, the TGI is over 100 µM in the experiment on SK-OV-3 ovarian, 34 µM in the experiment with SR leukemia, over 100 µM with TK-10 renal and 42.8 µM with U251 CNS.

`NC(=S)N/N=C/c1ccc(O)cn1`: the GI50 was 9.37 µM and 2.96 µM with 786-0 renal; 50.9 µM and 27.1 µM in the experiment on IGROV1 ovarian; 29.7 µM in the experiment on NCI-H226 lung; 22.3 µM and 6.64 µM in the experiment on RPMI-8226 leukemia; 20.5 µM and 83.3 µM and 14.6 µM in the experiment on RXF 393 renal; 5.55 µM and 3.43 µM with SF-268 CNS. Further, the GI50 with SK-OV-3 ovarian was 128 µM and 25.8 µM; with U251 CNS, 9.35 µM and 6.93 µM. Further, the TGI is 46 µM and > 408 µM with 786-0 renal; 916 µM and 827 µM with IGROV1 ovarian; 83.7 µM and 374 µM with NCI-H226 lung; > 1500 µM and 662 µM with RPMI-8226 leukemia; > 1500 µM and 552 µM with RXF 393 renal; 953 µM and 613 µM with SK-OV-3 ovarian. The TGI in the experiment with SR leukemia was over 323 µM; with TK-10 renal, over 1390 µM; in the experiment with U251 CNS, 391 µM and 602 µM.

Turning to `Cc1ccc(C(=O)/C(=C\c2ccc([N+](=O)[O-])cc2)S(=O)Cc2ccc(F)cc2)cc1` (stereo unspecified), the GI50 is 1.37 µM in the experiment with 786-0 renal; 1.5 µM with IGROV1 ovarian; 3.48 µM in the experiment on NCI-H226 lung; 1.02 µM with RPMI-8226 leukemia; 1.78 µM in the experiment with RXF 393 renal; 1.69 µM in the experiment on SF-268 CNS. For the same compound, the GI50 is 10.8 µM in the experiment on SK-OV-3 ovarian, 0.703 µM in the experiment on SR leukemia, 1.72 µM in the experiment on TK-10 renal and 1.66 µM with U251 CNS. For the same compound, the TGI amounted to 2.68 µM with 786-0 renal; 3.05 µM with IGROV1 ovarian; 13.1 µM in the experiment on NCI-H226 lung; 4.33 µM in the experiment with RPMI-8226 leukemia; 3.28 µM with RXF 393 renal; 3.36 µM in the experiment on SF-268 CNS. Moreover, the TGI in the experiment with SK-OV-3 ovarian stood at 23.2 µM; in the experiment on SR leukemia, 12.6 µM; in the experiment on TK-10 renal, 3.28 µM; in the experiment on U251 CNS, 3.22 µM.

For `Cc1cc([N+](=O)[O-])ccc1NS(=O)(=O)c1cc(Cl)ccc1Cl`, the GI50 in the experiment on 786-0 renal was 3.03 µM; in the experiment with IGROV1 ovarian it was 4.61 µM; with NCI-H226 lung, 2.87 µM; in the experiment with RPMI-8226 leukemia it was 1.9 µM; in the experiment with RXF 393 renal it was 2.98 µM; with SF-268 CNS it was 4.49 µM. For the same compound, the GI50 with SK-OV-3 ovarian is 2.51 µM; with SR leukemia it was 4.52 µM; in the experiment with TK-10 renal, 3.54 µM; in the experiment on U251 CNS, 2.9 µM. The TGI was 22.6 µM with 786-0 renal; over 100 µM in the experiment with IGROV1 ovarian; 14.3 µM in the experiment with NCI-H226 lung; 6.88 µM in the experiment on RPMI-8226 leukemia; 18.5 µM in the experiment with RXF 393 renal; over 100 µM in the experiment with SF-268 CNS. Besides, the TGI amounted to 8.63 µM in the experiment on SK-OV-3 ovarian, 27.6 µM in the experiment with SR leukemia, 75.2 µM in the experiment on TK-10 renal and 17.4 µM in the experiment with U251 CNS.

Consider `CC(=O)OC1CC[C@@]2(C)C(CC[C@]3(C)C2CC=C2[C@@H]4CC(C)(C)CCC4(C)CCC23C)[C@@]1(C)C(=O)O` (stereo partly specified), for which the TGI came to 45.9 µM with 786-0 renal; 38.6 µM in the experiment with IGROV1 ovarian; 50.2 µM in the experiment on NCI-H226 lung; 58.1 µM in the experiment with RPMI-8226 leukemia; 36.9 µM in the experiment with RXF 393 renal; 46.7 µM in the experiment on SF-268 CNS. The TGI is 31.2 µM in the experiment on SK-OV-3 ovarian, over 78.3 µM in the experiment on SR leukemia, 51.8 µM in the experiment with TK-10 renal and 32 µM in the experiment with U251 CNS.

`O=C1c2cc(-c3ccccc3)ccc2-c2c1c1ccc([N+](=O)[O-])cc1c(=O)n2CCCBr`: the GI50 with 786-0 renal is over 31.7 µM; in the experiment on IGROV1 ovarian it was over 50 µM; with NCI-H226 lung, over 47.4 µM; with RPMI-8226 leukemia it was over 32.8 µM; in the experiment with RXF 393 renal, over 26.3 µM; in the experiment on SF-268 CNS, over 35.4 µM. The GI50 with SK-OV-3 ovarian is 33.1 µM; in the experiment on TK-10 renal, 17.5 µM; in the experiment on U251 CNS it was over 31.9 µM. Besides, the TGI in the experiment on 786-0 renal is over 50 µM; in the experiment with IGROV1 ovarian it was over 50 µM; in the experiment with NCI-H226 lung it was over 50 µM; in the experiment with RPMI-8226 leukemia it was over 50 µM; with RXF 393 renal, over 43.7 µM; in the experiment with SF-268 CNS it was over 50 µM. For the same compound, the TGI is over 50 µM with SK-OV-3 ovarian, over 15.1 µM in the experiment on SR leukemia, over 50 µM with TK-10 renal and over 50 µM in the experiment with U251 CNS.

The values above are taken from PubChem BioAssay (NCI).
